The source of these data is article PMC8808171, “Nonselective TRPC channel inhibition and suppression of aminoglycoside-induced premature termination codon readthrough by the small molecule AC1903” (The Journal of Biological Chemistry, 2022).

Molecules are shown by their SMILES.

In one test the target is T1, TRPC1:C4 (A498) (Homo sapiens, UniProt P48995+Q9UBN4).
T1 construct: endogenous in cells; host or cells: A498
In words: [Ca2+]i recordings (Fura-2), endogenous TRPC1:C4 channels in A498 cells. It is filed as cell-based. Particulars: activator EA (100 nM). The method, then: HEK T-REx cells expressing tetracycline-inducible TRPC4, TRPC5, TRPC5–C1,TRPC4–C1, and hPiezo1 have been described previously ([46], [57], [59], [78]). Cloning of TRPC3 has been described previously ([79]). To create cells stably expressing tetracycline-inducible TRPC3, HEK T-REx cells were transfected with pcDNA4/TO/hTRPC3 using jetPRIME transfection reagent (VWR) according to manufacturer’s instructions. After 48 h cells were put under antibiotic selection using 400 μg/ml zeocin and 10 μg/ml Blasticidin S (Invivogen)). Medium changes were carried out every 2 to 3 days to remove dead cells. Inducible HEK T-REx cells were cultured in Dulbecco’s modified Eagle medium GlutaMAX (Thermo Fisher Scientific) containing 10% fetal bovine serum (FBS; Merck), penicillin-streptomycin (100 units ml^−1/100 μg ml^−1), with the addition of blasticidin (10 μg ml^1; Invivogen) and zeocin (Invivogen) at either 400 μg ml^−1 (TRPC cell lines) or 200 μg ml^−1 (hPiezo1) to maintain the stable incorporation of the tetracycline repressor and the channel of interest, respectively. Expression of tetracycline-inducible proteins was induced by the addition of tetracycline (TRPC cell lines: 1 μg ml^−1, hPiezo1: 100 ng ml^−1; 24 h) to cell culture medium. […]
For Ca^2+ recording, electrophysiology, and cell viability experiments, data were analyzed using GraphPad Prism 9.0. […]

Another test deals with DMS-114 cells. The test is described as follows: Measurement of intracellular G418 (gentamicin ELISA) in DMS-114 cells. It is filed as cell-based, human. The conditions noted are these: 150 μM AC1903 (Fig. 2D). The method, then: Figure 2 Effect of AC1903 on PTC readthrough and G418 trafficking.A and B, DMS-114 (A) or TC-71 (B) cells were pretreated with indicated concentrations of AC1903 for 3 h followed by exposure to 400 μg/ml G418. After 3 h medium was replenished and at 24 h cell lysates were prepared and p53 levels were measured. C and E, DMS-114 (C) or JEB01 (E) cells were either left untreated or pretreated with 150 μM AC1903 for 3 h followed by exposure to indicated concentrations of G418 for another 3 h. At 24 h cell lysates were prepared and p53 (C) or Collagen XVII (E) levels were measured. In panels A–C, protein levels were measured by automated capillary electrophoresis Western analysis (using vinculin as loading control). In panel E, protein levels were measured by Western blot (using beta-actin as loading control). […] D, total intracellular levels of G418 were measured in the same lysates as in (C) (n = 5; data normalized to the highest response in each experiment; bars represent mean ± SD). F, total intracellular levels of G418 were measured in the same lysates as in (E) (n = 2; data normalized to the highest response in each experiment; bars represent mean ± SD). ∗ indicates statistically significant difference between samples according to one-way ANOVA (p < 0.05). […]

T1 sequence (Q9UBN4 whole entry): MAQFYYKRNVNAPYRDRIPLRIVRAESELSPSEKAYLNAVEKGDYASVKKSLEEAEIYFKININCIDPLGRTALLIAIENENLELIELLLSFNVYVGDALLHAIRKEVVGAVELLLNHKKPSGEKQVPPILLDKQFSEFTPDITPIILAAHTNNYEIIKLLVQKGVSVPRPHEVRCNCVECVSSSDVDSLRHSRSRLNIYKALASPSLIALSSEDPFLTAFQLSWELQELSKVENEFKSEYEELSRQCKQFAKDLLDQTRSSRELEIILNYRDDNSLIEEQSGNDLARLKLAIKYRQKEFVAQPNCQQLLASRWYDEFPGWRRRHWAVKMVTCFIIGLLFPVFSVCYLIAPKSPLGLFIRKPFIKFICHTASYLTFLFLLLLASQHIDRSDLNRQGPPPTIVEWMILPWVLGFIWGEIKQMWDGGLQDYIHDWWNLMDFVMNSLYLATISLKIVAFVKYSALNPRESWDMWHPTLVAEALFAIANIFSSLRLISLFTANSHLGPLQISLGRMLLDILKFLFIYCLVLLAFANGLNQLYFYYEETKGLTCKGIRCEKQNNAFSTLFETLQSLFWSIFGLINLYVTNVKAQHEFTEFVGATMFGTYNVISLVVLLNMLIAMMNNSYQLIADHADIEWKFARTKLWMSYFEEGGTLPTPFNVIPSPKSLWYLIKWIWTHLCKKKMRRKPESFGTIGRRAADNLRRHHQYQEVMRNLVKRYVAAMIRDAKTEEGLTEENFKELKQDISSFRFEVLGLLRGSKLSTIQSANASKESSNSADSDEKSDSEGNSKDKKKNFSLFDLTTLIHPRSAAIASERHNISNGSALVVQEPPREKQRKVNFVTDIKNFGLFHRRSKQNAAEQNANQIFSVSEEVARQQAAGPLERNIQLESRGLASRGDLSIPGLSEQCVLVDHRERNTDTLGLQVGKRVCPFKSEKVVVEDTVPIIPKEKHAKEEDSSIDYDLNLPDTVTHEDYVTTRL
T1 sequence (P48995 whole entry): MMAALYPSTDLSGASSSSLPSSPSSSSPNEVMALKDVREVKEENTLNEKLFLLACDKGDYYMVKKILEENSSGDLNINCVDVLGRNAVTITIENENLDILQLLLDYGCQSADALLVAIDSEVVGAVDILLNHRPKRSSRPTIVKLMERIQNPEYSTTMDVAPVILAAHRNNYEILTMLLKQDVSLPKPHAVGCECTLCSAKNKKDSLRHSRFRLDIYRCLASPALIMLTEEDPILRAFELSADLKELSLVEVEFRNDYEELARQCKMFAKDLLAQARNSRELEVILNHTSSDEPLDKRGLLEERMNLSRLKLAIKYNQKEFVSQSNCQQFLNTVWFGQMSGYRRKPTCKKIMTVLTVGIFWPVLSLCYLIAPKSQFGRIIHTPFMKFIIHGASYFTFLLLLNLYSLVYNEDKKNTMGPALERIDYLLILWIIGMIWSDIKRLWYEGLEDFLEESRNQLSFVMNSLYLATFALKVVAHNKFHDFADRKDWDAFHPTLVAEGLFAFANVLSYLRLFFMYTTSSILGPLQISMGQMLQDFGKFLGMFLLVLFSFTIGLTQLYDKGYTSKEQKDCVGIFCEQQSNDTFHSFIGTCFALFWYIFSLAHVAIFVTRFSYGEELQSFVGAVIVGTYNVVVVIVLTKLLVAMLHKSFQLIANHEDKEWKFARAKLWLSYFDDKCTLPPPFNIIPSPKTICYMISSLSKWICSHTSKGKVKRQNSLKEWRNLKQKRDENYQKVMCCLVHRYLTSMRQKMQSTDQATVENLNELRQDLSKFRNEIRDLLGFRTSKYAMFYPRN

`c1ccc(Cn2c(NCc3ccco3)nc3ccccc32)cc1` [AC1903] gave a Hill slope at TRPC1:C4 (A498) (A498) of -1.2. Inhibition against TRPC1:C4 (A498) (A498 cells) was half-maximal at 3.4 µM (IC50). Moreover, in the test with DMS-114 cells, the “intracellular G418 levels in the presence of AC1903” value is recorded as “significantly decreased”.

As a reminder, the Hill slope is the slope factor of the fitted curve. Usually IC50 stands for the concentration needed to halve the response being measured. Low readings indicate higher potency, high ones lower potency.
